Reference: patent US20250281628A1, “COMPOSITE NANOPARTICULATE MINERALIZED COLLAGEN GLYCOSAMINOGLYCAN MATERIALS WITH TIME RELEASE ANTI-RESORPTIVE FACTORS” (The Regents of the University of California, priority 2021, published 2025)

How the values were obtained:
[1] = test system: canonical BMP receptor signaling pathway; assay: Inhibitor study with DMH1, western blot of hMSCs on scaffolds; type: cell-based, human; conditions: 50 μM
Method: (§1) Osteogenic differentiation of hMSCs on Col-GAG and MC-GAG: 3×10^5 hMSCs were seeded onto 8 mm discs of CG-GAG and MC-GAG scaffolds in proliferation media. 24 h after seeding, media was switched to osteogenic differentiation media consisting of 10 mM β-glycerophosphate, 50 μg/mL ascorbic acid, and 0.1 μM dexamethasone. For inhibitor studies, scaffolds were treated or untreated with dorsomorphin homologue 1 (DMH1; Sigma-Aldrich) or PD98059 (Cell Signaling Technologies, Beverly, MA) separately, all at a concentration of 50 μM. Fresh DMH1 and PD98059 were added to each media change every 3 days.
(§2) Western blot: Lysates were prepared from scaffolds at 0, 4, 14, and 24 days of culture using SDS sample buffer and equal amounts were subjected to 4-20% SDS-PAGE (Bio-Rad, Hercules, CA). Western blot analysis was carried out with antibodies against OPG, RANKL, phosphorylated small mothers against decapentaplegic 1/5 (p-Smad1/5), total Smad5, phosphorylated extracellular regulated kinase 1/2 (p-ERK1/2), total ERK1/2, and […] followed by 1:4000 dilutions of HRP-conjugated IgG antibodies (Bio-Rad, Hercules, CA) and an enhanced chemiluminescent substrate (Thermo Scientific, Rockford, IL). For detection of p-Smad1/5 and total Smad5, 10 μg of lysate was loaded per lane. For detection of OPG, RANKL, p-ERK1/2, total ERK1/2, and β-actin, 20 μg of lysate was loaded per lane. All antibodies were obtained from Cell Signaling Technologies (Beverly, MA) with the exception of RANKL, OPG, and β-actin antibodies which were obtained from Santa Cruz Biotechnology (Santa Cruz, CA). Imaging analysis was carried out using ImageJ (NIH, Bethesda, MD).
(§3) To characterize the mechanism responsible for differential OPG expression osteogenically differentiated hMSCs cultured on MC-GAG versus Col-GAG, DMH1, and PD98059 small molecule inhibitors were utilized for the canonical BMP receptor and MEK1/ERK1/2 signaling pathways, respectively (FIG. 11). […] Due to the massive upregulation of Smad1/5 phosphorylation in MC-GAG, a smaller inhibition was noted compared to Col-GAG. […] In contrast, OPG expression was increased in the presence of DMH1 on both Col-GAG and MC-GAG, particularly at the day 14 timepoint.

[2] = test system: MEK1/ERK1/2 signaling pathway; assay: Inhibitor study with PD98059, western blot of hMSCs on scaffolds; type: cell-based, human; conditions: 50 μM
Method: as §1, §2, §3

Row | Compound | phosphorylated ERK1/2 ([1]; MC-GAG at day 4) | OPG expression ([1]; both Col-GAG and MC-GAG, particularly day 14) | total Smad5, total ERK1/2, RANKL, or actin ([1]; hMSCs on Col-GAG and MC-GAG) | phosphorylation of Smad1/5 ([1]; hMSCs on either material) | phosphorylated Smad1/5, total Smad5, total ERK1/2, or actin [2] | phosphorylated ERK1/2 ([2]; all timepoints, either material) | OPG protein expression ([2]; hMSCs on Col-GAG) | RANKL expression ([2]; hMSCs on Col-GAG) | OPG protein expression ([2]; hMSCs on MC-GAG, all timepoints) | RANKL expression ([2]; hMSCs on MC-GAG, particularly day 24)
1 | CC(C)Oc1ccc(-c2cnc3c(-c4ccnc5ccccc45)cnn3c2)cc1 [DMH1, dorsomorphin homologue 1] | small elevation | increased | No differences | partially decreased at all timepoints | – | – | – | – | – | –
2 | COc1cccc(-c2cc(=O)c3ccccc3o2)c1N [PD98059] | – | – | – | – | no effects | decreased | no differences were detected | no differences were detected | decreased | downregulated
